# Test results from publication PMC5672842 (Chemical Science, 2017).
# Where two headings read alike, the source gives them in different places.
# Columns and labels:
# [1] = biological target: β-Glucosidase (P. chrysosp.) (Phanerodontia chrysosporium, UniProt O74203); test: 4-nitrophenyl β-D-glucopyranoside hydrolysis, absorbance […] nm; assay type: biochemical; conditions: pH 6.0, 37 °C, phosphate buffer, 10% DMSO
# [2] = biological target: T1, α-Glucosidase (A. niger) (Aspergillus niger, UniProt P56526); test: 4-nitrophenyl α-D-glucopyranoside hydrolysis, absorbance […] nm; assay type: biochemical
# T1 sequence (P56526 26-985): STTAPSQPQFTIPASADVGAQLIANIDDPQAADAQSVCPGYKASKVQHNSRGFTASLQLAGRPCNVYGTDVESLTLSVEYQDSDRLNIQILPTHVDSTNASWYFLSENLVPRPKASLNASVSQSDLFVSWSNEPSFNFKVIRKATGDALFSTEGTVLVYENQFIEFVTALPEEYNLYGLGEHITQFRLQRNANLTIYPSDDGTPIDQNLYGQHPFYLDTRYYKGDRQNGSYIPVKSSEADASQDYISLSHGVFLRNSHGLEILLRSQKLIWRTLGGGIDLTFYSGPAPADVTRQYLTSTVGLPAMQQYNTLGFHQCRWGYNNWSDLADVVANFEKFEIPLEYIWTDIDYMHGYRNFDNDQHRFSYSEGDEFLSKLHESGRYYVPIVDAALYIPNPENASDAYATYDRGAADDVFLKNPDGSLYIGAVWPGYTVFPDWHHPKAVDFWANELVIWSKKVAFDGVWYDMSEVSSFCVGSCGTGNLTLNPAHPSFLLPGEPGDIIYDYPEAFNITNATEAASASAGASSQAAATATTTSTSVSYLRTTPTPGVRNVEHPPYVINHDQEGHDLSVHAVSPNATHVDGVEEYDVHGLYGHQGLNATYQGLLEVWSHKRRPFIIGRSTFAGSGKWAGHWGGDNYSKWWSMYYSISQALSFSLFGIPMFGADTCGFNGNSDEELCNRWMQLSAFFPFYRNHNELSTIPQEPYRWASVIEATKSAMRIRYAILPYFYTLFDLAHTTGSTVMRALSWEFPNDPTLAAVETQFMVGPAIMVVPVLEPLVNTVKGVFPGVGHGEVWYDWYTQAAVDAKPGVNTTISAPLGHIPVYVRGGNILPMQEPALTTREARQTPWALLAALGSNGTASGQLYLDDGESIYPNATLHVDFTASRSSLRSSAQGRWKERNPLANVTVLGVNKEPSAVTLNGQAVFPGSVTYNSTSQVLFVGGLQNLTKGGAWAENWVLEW
# [3] = biological target: β-Glucosidase (A. oryzae); test: 4-nitrophenyl β-D-glucopyranoside hydrolysis, absorbance […] nm; assay type: biochemical, Aspergillus oryzae; conditions: read-out: 19; pH 6.0, 37 °C, phosphate buffer, 10% DMSO
# [4] = biological target: α-Glucosidase (B. stearoth.); test: 4-nitrophenyl α-D-glucopyranoside hydrolysis, absorbance […] nm; assay type: biochemical, Geobacillus stearothermophilus; conditions: read-out: 6; pH 6.0, 37 °C, phosphate buffer, 10% DMSO; competitive
# β-Glucosidase (P. chrysosp.), sequence (O74203 22-823): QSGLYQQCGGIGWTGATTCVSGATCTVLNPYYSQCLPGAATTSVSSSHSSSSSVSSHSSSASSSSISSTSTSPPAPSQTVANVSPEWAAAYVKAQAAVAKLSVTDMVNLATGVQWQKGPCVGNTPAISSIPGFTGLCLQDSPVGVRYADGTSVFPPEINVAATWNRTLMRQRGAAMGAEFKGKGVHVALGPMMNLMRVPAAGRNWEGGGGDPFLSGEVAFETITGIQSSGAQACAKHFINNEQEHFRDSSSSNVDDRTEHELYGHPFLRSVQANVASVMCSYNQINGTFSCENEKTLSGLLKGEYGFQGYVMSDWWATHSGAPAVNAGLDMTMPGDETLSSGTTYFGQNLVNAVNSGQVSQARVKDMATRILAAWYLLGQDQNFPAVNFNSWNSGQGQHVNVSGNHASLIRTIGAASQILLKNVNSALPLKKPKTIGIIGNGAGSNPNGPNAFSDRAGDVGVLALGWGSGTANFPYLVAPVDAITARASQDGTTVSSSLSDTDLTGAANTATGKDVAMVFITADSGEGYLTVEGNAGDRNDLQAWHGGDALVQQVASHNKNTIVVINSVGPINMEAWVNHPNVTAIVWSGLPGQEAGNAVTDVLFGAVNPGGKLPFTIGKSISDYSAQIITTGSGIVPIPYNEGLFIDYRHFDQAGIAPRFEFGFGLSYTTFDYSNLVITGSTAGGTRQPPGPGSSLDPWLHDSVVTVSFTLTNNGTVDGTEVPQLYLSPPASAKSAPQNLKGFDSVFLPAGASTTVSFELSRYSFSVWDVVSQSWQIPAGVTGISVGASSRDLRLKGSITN
smiles,measurement,setting,value
"OC[C@@H]1[C@@H](O)[C@H](O)[C@@H](O)CN1CCc1c2ccccc2c(Cl)c2ccccc12 [compound 12, 1-(2-(10-Chloroanthracen-9-yl)ethyl)-1-deoxynojirimycin]",Ki,[1]; read-out: 12,0.0062 µM
"OC[C@@H]1[C@@H](O)[C@H](O)[C@@H](O)CN1CCCc1c2ccccc2c(Cl)c2ccccc12 [compound 15, 1-(3-(10-Chloroanthracen-9-yl)propyl)-1-deoxynojirimycin]",Ki,[1]; read-out: 15,0.0103 µM
"O=C1[C@H](O)[C@@H](O)[C@H](O)[C@@H](CO)N1Cc1c2ccccc2c(Cl)c2ccccc12 [compound 19, N-(10-Chloro-9-anthracenemethyl)-D-glucono-δ-lactam]",Ki,[1]; read-out: 19,24.3 µM
same,Ki,[2],14.4 µM
same,Ki,[3],169 µM
"OC[C@@H]1[C@@H](O)[C@H](O)[C@@H](O)CN1Cc1c2ccccc2c(Cl)c2ccccc12 [compound 6, N-(10-Chloro-9-anthracenemethyl)-1-deoxynojirimycin]",Ki,[4],93 µM
same,Ki,"[1]; read-out: 6, competitive",2.7 µM
same,Ki,[2],1.04 µM
